Experiments:
MCA205 WT tumor = assay: Tumor challenge, MCA205 WT in immunocompetent C57BL/6 mice; type: in vivo, mouse; details: 18 mg/kg intraperitoneally, days 5, 10 and 15 (FIG. 11D)
Protocol: (§1) (A) Experimental settings. Growth of (B) sarcoma MCA205 or (C) melanoma B16F10 cells that both stably express the globin-SL8-intron construct or (D) MCA205 Wild Type (WT) or (E) B16F10 WT cells that were subcutaneously inoculated on the flank of immunocompetent C57BL/6 mice injected intraperitoneally with 12 mg/kg or 18 mg/kg of isoginkgetin at days 5, 10 and 15 after inoculation. Tumor size was assessed every 3 to 4 days until reaching the established ethical endpoints. Each line represents the tumor size in area (mm^2) of 6 mice in each group. Size in area (mm^2) of (F) MCA205 globin-SL8-intron, (G) B16F10 globin-SL8-intron, (H) MCA205 WT or (I) B16F10 WT tumors subcutaneously inoculated on the flank of immunodeficient Nu/Nu Nude mice injected intraperitoneally with 18 mg/kg of isoginkgetin at days 5, 10 and 15 after inoculation. Data are presented at the day before the endpoints are reached.
(§2) Data are given as mean ±SEM. *P<0.05, **P<0.01, ***P<0.001 (unpaired student t test). […] Tumor size was assessed every 3 to 4 days until reaching the established ethical endpoints. […]
The SL8 peptide has been widely shown to be highly immunogenic in vivo. […] At days 5, 10 and 15 after tumor inoculation, the mice were injected intraperitoneally with a define dose of isoginkgetin, and the tumor growth was monitored (FIG. 9A). […]

[1] = tested on: mouse sarcoma cell line MCA205; assay: B3Z SL8-specific T-cell activation assay, MCA205; type: cell-based; details: MCA205, Globin-intron-SL8
Protocol: (§3) B3Z SL8-specific T-cell activation after co-culture with (A) human melanoma A375, human lung carcinoma A549 or normal human lung fibroblast MRC5 cell lines, all transiently expressing the intron-derived SL8 peptide and the H2-K^b molecules and treated upstream with 2,5 μM or 6,25 μM isoginkgetin for 18 hours; or with (B) mouse sarcoma MCA205 or mouse melanoma B16F10 cell lines both transiently expressing the intron-derived SL8 peptide and treated upstream with 6,25 μM, 15 μM or 25 μM isoginkgetin for 18 hours. […]
as §2
(§4) MCA205 and B16F10 mouse cell lines are transfected with the plasmid YFP-Globin-SL8-intron or with the PCDNA3 empty plasmid (negative control) with the transfection reagent jetPRIME (Ozyme) or GeneJuice (Millipore) respectively according to each manufacturer protocol. […] Finally, the β-galactosidase activity is measured using the FLUOstar OPTIMA (BMG LABTECH Gmbh, Offenburg, Germany). Results are expressed as mean ±SEM. *P<0.05, **P<0.01, ***P<0.001 (unpaired student t test).

[2] = tested on: mouse melanoma cell line B16F10; assay: B3Z SL8-specific T-cell activation assay, B16F10; type: cell-based; details: B16F10, Globin-intron-SL8; 15 μM or 35 μM
Protocol: as §3, §2, §4

MCA205 WT tumors = assay: Tumor challenge, MCA205 WT in immunodeficient Nu/Nu nude mice; type: in vivo, mouse; details: 18 mg/kg intraperitoneally, days 5, 10 and 15
Protocol: as §1
Each line represents the tumor size in area (mm^2) of at least 6 mice in each group. The C right panel represents the tumor size at day 27. […]
Inventors then assessed the requirement of the immune response for isoginkgetin to reduce tumor growth Immunodeficient Nu/Nu nude mice were inoculated subcutaneously with either MCA205 or B16F10 cells that stably express the Globin-intron-SL8 or WT, and were treated with the same settings as previously described (FIG. 9A). […]

Compound | tumor growth (MCA205 WT tumor) | intron-SL8-derived antigen presentation (B3Z activation) ([1]; 15 μM or 35 μM) | PTPs-dependent (intron-derived SL8) antigen presentation (B3Z activation) ([1]; 15 μM, 25 μM or 35 μM) | intron-SL8-derived antigen presentation (B3Z activation) [2] | tumor growth (MCA205 WT tumors)
COc1ccc(-c2cc(=O)c3c(OC)cc(OP(=O)([O-])[O-])c(-c4cc(-c5cc(=O)c6c(OC)cc(OP(=O)([O-])[O-])cc6o5)ccc4OC)c3o2)cc1.[Na+].[Na+].[Na+].[Na+] [IM2P2] | did not impact tumor growth | decreases its presentation | does not increase the presentation | does not impact it | –
COc1ccc(-c2cc(=O)c3c(O)cc(O)c(-c4cc(-c5cc(=O)c6c(O)cc(O)cc6o5)ccc4OC)c3o2)cc1 [Isoginkgetin, isoginkgetin] | – | – | – | – | No effect
